# Test system: Spodoptera littoralis
# Test: Insecticidal bioassay screening (castor leaf dip) against 2nd and 4th instar larvae
# Type: in vivo
# Settings: for Toxic ratio: 72 h, fenoxycarb's LC50/compound's LC50 ×100
# Method: Five concentrations (200, 100, 50, 25, 12.5 ppm) were designed for this synthetic compound and the reference fenoxycarb compound as the dynamic ingredients based on ppm via diluting the commercial formulation.
# In this experiment, castor leaves were immersed in each of the previously prepared concentrations of the components for 10 seconds and then left to dry for 60 minutes.
# Larvae of the second and fourth instars of each checked strain were prepared with treated leaves in gauze-covered glass containers for 72 hrs. An untreated control was made in which leaves were dipped in triton x-100 and distilled water only. Then, the preserved leaves were removed & fresh, untreated leaves were provided for 72 hours. Three replicates (10 larvae each) were checked for each concentration. Daily inspection was carried out for all treatments and mortality percentages were recorded 3 days (72 hours) after treatment. The average mortality percentage was corrected employing Abbott's formula. The corrected mortality rate for each of the previously synthesized compounds was statistically calculated according to Finney (1970). Through this rate, the corresponding concentration test lines (LDP lines) were assessed. Fifty and ninety percent mortality was determined, and the regression values for the checked products were previously evaluated.
smiles,measurement,setting,value
CCOC(=O)NCCOc1ccc(Oc2ccccc2)cc1 [Fenoxycarb],LC50,"2nd instar larvae of S. littoralis, after 72 h of treatment",2.73 ppm
same,Toxic ratio,2nd instar larvae,100
same,LC50,"4th instar larvae of S. littoralis, after 72 h of treatment",43.231 ppm
same,Toxic ratio,4th instar larvae,1
same,LC50,"Spodoptera littoralis, foliar",2.73 µg/mL

# Reference: patent US12116333B1, “3,3'-(hydrazine-1,2-diyl)bis(1-(naphthalen-2-yloxy)propan-2-ol) as an ecofriendly insecticidal agent against spodoptera littoralis (boisd.)” (KING FAISAL UNIVERSITY, priority 2023, dated 2024)
